Results taken from patent publication US5464617A, “β-lactam compounds” (Hoffmann-La Roche Inc., priority 1994, dated 1995).
Counter-ions that a name gives are not always drawn.

Tests used:
[1] = tested on: Citrobacter freundii 1982; experiment: MIC in vitro of a 1:4 combination of ceftriaxone with a compound of formula I (Test D); format: cell-based; settings: for MIC C. freundii 1982: Table 2; for MIC C. freundii 1982 (D): test D
Description: The minimum inhibitory concentration in vitro ([…]) of a 1:4 combination of ceftriaxone with a compound of formula I against Citrobacter freundii 1982 was measured and compiled in Table 2 hereinafter.

E. coli 1346 = experiment: Antibacterial activity of the products per se, serial dilution method in liquid medium (Test E); format: cell-based; settings: product per se; for MIC E. coli 1346: Table 3, liquid medium; for MIC E. coli 1346 (E): test E
From the text: The antibacterial activity of the products per se is illustrated on the basis of Table 3 hereinafter, the minimum inhibitory concentration […] in vitro against E. coli 1346 being determined using the serial dilution method in liquid medium: […]

[2] = 1:4 combination of ceftriaxone with the compound
[3] = Table 4, 1:4 combination of ceftriaxone with the compound

SMILES: Cc1nnc(SC2=C(C(=O)O)N3C(=O)[C@H]4NC[C@@H](C2)[C@H]43)s1 [Example 2(b), (1aS,3aR,6bR)-5-(5-Methyl-1,3,4-thiadiazol-2-ylsulphanyl)-1-oxo-1a, 2,3,3a,4,6b-hexahydro-1H-2,6a-diazcyclobut[cd]indene-6-carboxylic acid trifluoroacetate]
- MIC C. freundii 1982 [1, 2]: 1 µg/mL
- MIC E. coli 1346 (E. coli 1346): 4 µg/mL

SMILES: O=C(O)C1=C(Sc2ccncc2)C[C@@H]2CN[C@@H]3C(=O)N1[C@H]23 [Example 2(d), (1aS,3aR,6bR)-1-oxo-5-(pyridin-4-ylsulphanyl)-1a,2,3,3a,4,6b-hexahydro-1H-2,6a-diazacyclobut[cd]indene-6-carboxylic acid trifluoroacetate]
- MIC C. freundii 1982 (D) [1, 3]: 64 µg/mL
- MIC E. coli 1346 (E) (E. coli 1346; Table 4): > 32 µg/mL

SMILES: NC(=O)CSC1=C(C(=O)O)N2C(=O)[C@H]3NC[C@@H](C1)[C@H]32 [Example 2(f), (1aS,3aR,6bR)-5-Carbamoylmethylsulphanyl-1-oxo-1a,2,3,3a,4,6b-hexahydro-1H-2,6a-diazacyclobut[cd]indene-6-carboxylic acid trifluoroacetate]
- MIC C. freundii 1982 (D) [1, 3]: 2 µg/mL
- MIC E. coli 1346 (E) (E. coli 1346; Table 4): 8 µg/mL

SMILES: Cn1nnnc1SC1=C(C(=O)O)N2C(=O)[C@@H]3[C@H]2[C@H](C1)CN3C(=O)Nc1ccc(O)cc1 [Example 3(a), (1aS,3aR,6bR)-2-(4-Hydroxy-phenylcarbamoyl)-5-(1-methyl-1H-tetrazol-5-ylsulphanyl)-1-oxo-1a,2,3,3a,4,6b-hexahydro-1H-2,6a-diazacyclobut[cd]indene-6-carboxylic acid sodium salt]
- MIC C. freundii 1982 [1, 2]: 0.25 µg/mL
- MIC E. coli 1346 (E. coli 1346): 128 µg/mL

SMILES: CC(=O)N1C[C@H]2CC(Sc3nnnn3C)=C(C(=O)O)N3C(=O)[C@@H]1[C@@H]23 [Example 3(aa), (1aS,3aR,6bR)-2-Acetyl-5-(1-methyl-1H-tetrazol-5-ylsulphanyl)-1-oxo-1a,2,3,3a,4,6b-hexahydro-1H-2,6a-diazacyclobut[cd]indene-6-carboxylic acid sodium salt]
- MIC C. freundii 1982 (D) [1, 3]: 2 µg/mL
- MIC E. coli 1346 (E) (E. coli 1346; Table 4): 8 µg/mL

SMILES: Cn1nnnc1SC1=C(C(=O)O)N2C(=O)[C@@H]3[C@H]2[C@H](C1)CN3C(=O)C(F)(F)F [Example 3(ab), (1aS,3aR,6bR)-5-(1-Methyl-1H-tetrazol-5-ylsulphanyl)-1-oxo-2-trifluoroacetyl-1a,2,3,3a,4,6b-hexahydro-1H-2,6a-diazacyclobut[cd]indene-6-carboxylic acid sodium salt]
- MIC C. freundii 1982 (D) [1, 3]: 16 µg/mL
- MIC E. coli 1346 (E) (E. coli 1346; Table 4): 32 µg/mL

SMILES: Cc1nnc(SC2=C(C(=O)O)N3C(=O)[C@@H]4[C@H]3[C@H](C2)CN4C(=O)C(F)(F)F)s1 [Example 3(ad), (1aS,3aR,6bR)-5-(5-Methyl-1,3,4-thiadiazol-2-ylsulphanyl)-1-oxo-2-trifluoracetyl-1a,2,3,3a,4,6b-hexahydro-1H-2,6a-diazacyclobut[cd]indene-6-carboxylic acid sodium salt]
- MIC C. freundii 1982 (D) [1, 3]: 8 µg/mL
- MIC E. coli 1346 (E) (E. coli 1346; Table 4): 16 µg/mL

SMILES: CC(=O)N1C[C@H]2CC(Sc3ccncc3)=C(C(=O)O)N3C(=O)[C@@H]1[C@@H]23 [Example 3(ah), (1aS,3aR,6bR)-2-Acetyl-1-oxo-5-(pyridin-4-ylsulphanyl)-1a,2,3,3a,4,6b-hexahydro-1H-2,6a-diazacyclobut[cd]indene-6-carboxylic acid sodium salt]
- MIC C. freundii 1982 (D) [1, 3]: 2 µg/mL
- MIC E. coli 1346 (E) (E. coli 1346; Table 4): 8 µg/mL

SMILES: CO/N=C(\C(=O)N1C[C@H]2CC(Sc3nnnn3C)=C(C(=O)O)N3C(=O)[C@@H]1[C@@H]23)c1csc(N)n1 [Example 7, (Z)-(1aS,3aR,6bR)-2-[(2-Amino-thiazol-4-yl)-methoxyiminoacetyl]-1-oxo-5-(1-methyl-1H-tetrazol-5-ylsulphanyl)-1a,2,3,3a,4,6b-hexahydro-1H-2,6a-diazacyclobut[cd]indene-6-carboxylic acid sodium salt]
- MIC C. freundii 1982 [1, 2]: 16 µg/mL
- MIC E. coli 1346 (E. coli 1346): 64 µg/mL

SMILES: CS(=O)(=O)OC1=C(C(=O)O)N2C(=O)[C@H]3NC[C@@H](C1)[C@H]32 [Example 8, (1aS,3aR,6bR)-5-Methylsulphonyloxy-1-oxo-1a,2,3,3a,4,6b-hexahydro-1H-2,6a-diazacyclobut[cd]indene-6-carboxylic acid trifluoroacetate]
- MIC C. freundii 1982 [1, 2]: 1 µg/mL
- MIC E. coli 1346 (E. coli 1346): 2 µg/mL

SMILES: COC(=O)CC1=C(C(=O)O)N2C(=O)[C@H]3NC[C@@H](C1)[C@H]32 [Example 12(b), (1aS,3aR,6bR)-5-Methoxycarbonylmethyl-1-oxo-1a,2,3,3a,4,6b-hexahydro-1H-2,6a-diazacyclobut[cd]indene-6-carboxylic acid trifluoroacetate]
- MIC C. freundii 1982 [1, 2]: 4 µg/mL
- MIC E. coli 1346 (E. coli 1346): 8 µg/mL

SMILES: Cn1nnnc1SCC1=C(C(=O)O)N2C(=O)[C@@H]3[C@H]2[C@H](C1)CN3C(=O)C(F)(F)F [Example 19(c), (1aS,3aR,6bR)-5-(1-Methyl-1H-tetrazol-5-ylsulphanylmethyl)-1-oxo-2-trifluoracetyl-1a,2,3,3a,4,6b-hexahydro-1H-2,6a-diazacyclobut[cd]indene-6-carboxylic acid sodium salt]
- MIC C. freundii 1982 (D) [1, 3]: 0.5 µg/mL
- MIC E. coli 1346 (E) (E. coli 1346; Table 4): 2 µg/mL

SMILES: Cn1nnnc1SCC1=C(C(=O)O)N2C(=O)[C@@H]3[C@H]2[C@H](C1)CN3C(=O)CC#N [Example 19(d), (1aS,3aR,6bR)-2-Cyanoacetyl-5-(1-methyl-1H-tetrazol-5-ylsulphanylmethyl)-1-oxo-1a,2,3,3a,4,6b-hexahydro-1H-2,6a-diazacyclobut[cd]indene-6-carboxylic acid sodium salt]
- MIC C. freundii 1982 (D) [1, 3]: 0.25 µg/mL
- MIC E. coli 1346 (E) (E. coli 1346; Table 4): 2 µg/mL

SMILES: Cn1nnnc1SCC1=C(C(=O)O)N2C(=O)[C@@H]3[C@H]2[C@H](C1)CN3S(C)(=O)=O [Example 19(e), (1aS,3aR,6bR)-2-Methylsulphonyl-5-(1-methyl-1H-tetrazol-5-ylsulphanylmethyl)-1-oxo-1a,2,3,3a,4,6b-hexahydro-1H-2,6a-diazacyclobut[cd]indene-6-carboxylic acid sodium salt]
- MIC C. freundii 1982 (D) ([1]; Table 5, particularly preferred products, 1:4 combination with ceftriaxone): 0.25 µg/mL
- MIC E. coli 1346 (E) (E. coli 1346; Table 5, particularly preferred products): 1 µg/mL

SMILES: Cn1nnnc1SCC1=C(C(=O)O)N2C(=O)[C@@H]3[C@H]2[C@H](C1)CN3C=O [Example 19(k), (1aS,3aR,6bR)-2-Formyl-5-(1-methyl-1H-tetrazol-5-ylsulphanylmethyl)-1-oxo-1a,2,3,3a,4,6b-hexahydro-1H-2,6a-diazacyclobut[cd]indene-6-carboxylic acid sodium salt]
- MIC C. freundii 1982 (D) [1, 3]: 0.25 µg/mL
- MIC E. coli 1346 (E) (E. coli 1346; Table 4): 0.5 µg/mL

SMILES: C[n+]1ccc(SCC2=C(C(=O)[O-])N3C(=O)[C@H]4NC[C@@H](C2)[C@H]43)cc1 [Example 20, (1aS,3aR,6bR)-5-(1-Methyl-pyridin-4-yliosulphanylmethyl)-1-oxo-1a,2,3,3a,4,6b-hexahydro-1H-2,6a-diazacyclobut[cd]indene-6-carboxylate trifluoroacetate]
- MIC C. freundii 1982 [1, 2]: 1 µg/mL
- MIC E. coli 1346 (E. coli 1346): ≤ 0.5 µg/mL

SMILES: O=C([O-])C1=C(C[n+]2ccccc2)C[C@@H]2CN[C@@H]3C(=O)N1[C@H]23 [Example 22, (1aS,3aR,6bR)-1-Oxo-5-(pyridin-1-yliomethyl)-1a,2,3,3a,4,6b-hexahydro-1H-2,6a-diazacyclobut[cd]indene-6-carboxylate trifluoroacetate]
- MIC C. freundii 1982 [1, 2]: 4 µg/mL
- MIC E. coli 1346 (E. coli 1346): 4 µg/mL
